ChEMBL document CHEMBL1147369, “Novel Diterpenoids from Taxus chinensis” (J Nat Prod, 1993)

experiment: Inhibition of tubulin microtubule disassembly

Compound | ID50 [µM]
C=C1[C@@H](O)C[C@H](OC(C)=O)[C@@]2(C)[C@@H](OC(C)=O)[C@H](OC(=O)c3ccccc3)C3=C(C)[C@@H](O)C[C@@]3(C(C)(C)O)[C@@H](OC(C)=O)[C@H]12 | > 100
CC(=O)O[C@H]1C[C@]2(C(C)(C)O)C(=C1C)[C@@H](OC(=O)c1ccccc1)[C@H](OC(=O)c1ccccc1)[C@]1(C)[C@@H](OC(C)=O)C[C@H]3OC[C@@]3(OC(C)=O)[C@H]1[C@@H]2OC(=O)c1ccccc1 | > 100
CC(=O)O[C@H]1C(=O)[C@@]2(C)[C@H]([C@H](OC(=O)c3ccccc3)[C@]3(O)C[C@H](OC(=O)[C@H](O)[C@@H](NC(=O)c4ccccc4)c4ccccc4)C(C)=C1C3(C)C)[C@]1(OC(C)=O)CO[C@@H]1C[C@@H]2O | 0.29
CC(=O)O[C@H]1C[C@H]2OC[C@@]2(OC(C)=O)[C@H]2[C@H](OC(C)=O)[C@]3(C(C)(C)O)C[C@H](OC(=O)/C=C/c4ccccc4)C(C)=C3[C@@H](OC(=O)c3ccccc3)[C@H](OC(C)=O)[C@]12C | > 100

Continued, values first:

ID50 [µM] | Compound
> 100 | CC(=O)O[C@H]1C(=O)[C@]2(CO)[C@H](O)C[C@H]3OC[C@@]3(OC(C)=O)[C@H]2[C@H](OC(=O)c2ccccc2)[C@]2(O)C[C@H](O)C(C)=C1C2(C)C
> 100 | CC(=O)O[C@@]12CO[C@@H]1C[C@@H](O)[C@@]1(C)C(=O)C(=O)C3=C(C)[C@@H](O)C[C@@](O)([C@@H](OC(=O)c4ccccc4)[C@H]21)C3(C)C
